The results in this text go back to EP4667458A1 (Kanaph Therapeutics Inc., priority 2023, dated 2024).

Where two headings read alike, the source gives them in different places.

For assay [1], the target named is T1, SOS1 (Homo sapiens, UniProt Q07889).
T1 construct: adding equal amounts of HIS-SOS1cat (160 nM; Cytoskeleton, US); His; purchased Cytoskeleton, US
T1 sequence (Q07889 564-1049 limits assumed): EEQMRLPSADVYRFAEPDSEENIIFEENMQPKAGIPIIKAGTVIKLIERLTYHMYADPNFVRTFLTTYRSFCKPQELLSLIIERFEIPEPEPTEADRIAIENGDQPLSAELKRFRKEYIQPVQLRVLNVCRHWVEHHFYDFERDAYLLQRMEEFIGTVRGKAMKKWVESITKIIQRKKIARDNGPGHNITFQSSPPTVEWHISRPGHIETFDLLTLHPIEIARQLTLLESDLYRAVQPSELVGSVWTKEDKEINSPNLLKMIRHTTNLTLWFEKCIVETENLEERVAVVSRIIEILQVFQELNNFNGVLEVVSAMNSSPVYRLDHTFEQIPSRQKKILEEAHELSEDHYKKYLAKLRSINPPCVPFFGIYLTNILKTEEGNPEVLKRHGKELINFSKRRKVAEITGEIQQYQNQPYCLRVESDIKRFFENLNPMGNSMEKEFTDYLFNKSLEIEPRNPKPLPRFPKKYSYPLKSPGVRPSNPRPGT
Nature of the assay: SOS-catalyzed nucleotide exchange assay (HTRF, SOS1-mediated GTP loading of KRAS G12D). The class given is biochemical. As to conditions: GST-KRAS G12D, HIS-SOS1cat, EDA-GTP-DY-647P1; compound 128 pM to 10 µM; read-out: SOS-catalyzed nucleotide exchange assay (IC50 range, Grade). An outline of the steps:
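SOS1cat (HIS-tagged) preincubated 10 min at room temperature with compound (128 pM-10 µM), then GST-KRAS G12D with anti-GST terbium added; GTP loading tracked as HTRF with a DY-647P1 GTP analogue after 30 min, buffer HEPES pH 7.4. GEF-free wells for normalization; IC50 derived.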

For assay [2], the target named is T2, KRAS^G12C::SOS1 (Homo sapiens, UniProt Q07889).
T2 sequence (Q07889 1-1333): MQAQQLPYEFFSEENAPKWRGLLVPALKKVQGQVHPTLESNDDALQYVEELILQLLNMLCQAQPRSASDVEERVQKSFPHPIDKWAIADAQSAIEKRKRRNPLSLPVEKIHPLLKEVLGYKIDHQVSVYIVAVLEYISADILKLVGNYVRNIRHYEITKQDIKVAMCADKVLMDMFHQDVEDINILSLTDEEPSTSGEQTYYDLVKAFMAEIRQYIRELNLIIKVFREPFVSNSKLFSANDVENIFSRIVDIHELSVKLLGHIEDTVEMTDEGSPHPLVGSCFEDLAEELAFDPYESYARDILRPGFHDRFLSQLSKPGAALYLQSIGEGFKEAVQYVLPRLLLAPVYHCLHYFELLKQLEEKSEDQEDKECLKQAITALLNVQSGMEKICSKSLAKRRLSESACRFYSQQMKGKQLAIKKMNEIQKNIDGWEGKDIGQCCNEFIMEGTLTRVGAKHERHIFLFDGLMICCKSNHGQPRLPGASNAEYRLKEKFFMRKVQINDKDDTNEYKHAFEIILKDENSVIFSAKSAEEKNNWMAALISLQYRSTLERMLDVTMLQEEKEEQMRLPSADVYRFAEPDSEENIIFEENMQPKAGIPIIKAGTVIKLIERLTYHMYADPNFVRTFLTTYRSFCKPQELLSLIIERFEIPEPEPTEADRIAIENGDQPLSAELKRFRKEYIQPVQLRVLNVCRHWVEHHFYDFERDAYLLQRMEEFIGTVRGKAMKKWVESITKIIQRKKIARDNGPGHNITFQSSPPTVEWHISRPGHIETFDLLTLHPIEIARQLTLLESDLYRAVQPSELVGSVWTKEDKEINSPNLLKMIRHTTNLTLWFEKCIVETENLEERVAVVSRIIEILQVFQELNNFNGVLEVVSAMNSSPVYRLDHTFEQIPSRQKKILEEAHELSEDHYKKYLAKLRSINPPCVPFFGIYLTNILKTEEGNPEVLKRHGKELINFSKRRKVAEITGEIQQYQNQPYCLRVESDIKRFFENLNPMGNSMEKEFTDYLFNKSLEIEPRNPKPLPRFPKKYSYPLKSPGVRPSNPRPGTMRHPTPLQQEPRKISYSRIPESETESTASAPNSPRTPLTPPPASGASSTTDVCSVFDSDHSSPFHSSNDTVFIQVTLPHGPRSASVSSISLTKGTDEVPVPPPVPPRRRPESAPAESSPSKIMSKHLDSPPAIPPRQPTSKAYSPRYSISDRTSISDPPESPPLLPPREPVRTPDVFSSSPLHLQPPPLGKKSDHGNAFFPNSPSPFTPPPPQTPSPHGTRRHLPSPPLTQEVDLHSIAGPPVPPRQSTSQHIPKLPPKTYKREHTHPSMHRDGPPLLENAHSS
In words: KRAS G12C::SOS1 protein-protein interaction (PPI) inhibition assay (HTRF binding kit). Background: Time-resolved FRET reads energy transfer from a long-lived donor to a nearby acceptor.
Experimental: Protein-protein interaction between SOS1 and KRAS^G12C was detected using KRAS G12C/SOS1 binding kit from CISBIO (64KRASG12PEH, CISBIO, FRANCE) according to the manufacturer's assay method. Briefly, the maximum concentration of an inhibitor sample was set to be 3 µM, and the inhibitor sample was diluted 7 times by 1/3, and samples having a total of 8 concentrations were prepared. In HTRF (Homogeneous Time-Resolved Fluorescence) exclusive 96-well low-volume white plate (66PL96005, CISBIO, FRANCE), 2 µL of an inhibitor sample prepared for each concentration, 5 µL of a mixed solution of Tag1-labeled KRAS^G12C protein and GTP diluted with the dilution solution provided by the manufacturer, and 5 µL of Tag2 labeled SOS1 protein were mixed, and added with 8 µL of a diluted solution where anti-Tag1 KRAS^G12C XL665 (HTRF acceptor) labeled antibody and anti-Tag2 SOS1 Terbium cryptate (HTRF donor) labeled antibody were mixed in an equal ratio and incubated at room temperature for 2 h.

For the compound `COc1ccc(-n2nc(C(=O)N[C@H](C)c3cc(N)cc(C(F)(F)F)c3)ccc2=O)c(OC)c1` [Example 153, N-[(1R)-1-[3-amino-5-(trifluoromethyl)phenyl]ethyl]-1-(2,4-dimethoxyphenyl)-6-oxo-pyridazine-3-carboxamide], the half-maximal inhibitory concentration (IC50) in assay [1] and in assay [2] was less than 1 µM throughout.

Turning to `C[C@@H](NC(=O)c1ccc(=O)n(-c2cccc3cc[nH]c23)n1)c1cc(N)cc(C(F)(F)F)c1` [Example 155, N-[(1R)-1-[3-amino-5-(trifluoromethyl)phenyl]ethyl]-1-(1H-indole-7-yl)-6-oxo-pyridazine-3-carboxamide], the IC50 in assay [1] was 1 to 10 µM; in assay [2] it was less than 1 µM.

Consider `C[C@@H](NC(=O)c1ccc(=O)n(-c2ccccc2CO)n1)c1cc(N)cc(C(F)(F)F)c1` [Example 156, N-[(1R)-1-[3-amino-5-(trifluoromethyl)phenyl]ethyl]-1-[2-(hydroxymethyl)phenyl]-6-oxo-pyridazine-3-carboxamide], for which the IC50 in assay [1] and in assay [2] was 1 to 10 µM throughout.

For the compound `COCc1ccccc1-n1nc(C(=O)N[C@H](C)c2cc(N)cc(C(F)(F)F)c2)ccc1=O` [Example 157, N-[(1R)-1-[3-amino-5-(trifluoromethyl)phenyl]ethyl]-1-[2-(methoxymethyl)phenyl]-6-oxo-pyridazine-3-carboxamide], the IC50 in assay [1] and in assay [2] was 1 to 10 µM throughout.

On to `C[C@@H](NC(=O)c1ccc(=O)n(-c2cccc(F)c2)n1)c1cc(N)cc(C(F)(F)F)c1` [Example 158, N-[(1R)-1-[3-amino-5-(trifluoromethyl)phenyl]ethyl]-1-(3-fluorophenyl)-6-oxo-pyridazine-3-carboxamide], for which the 50% inhibitory concentration (IC50) in assay [1] and in assay [2] was less than 1 µM in each case.

Turning to `C[C@@H](NC(=O)c1ccc(=O)n(-c2cc(CO)ccc2F)n1)c1cc(N)cc(C(F)(F)F)c1` [Example 159, N-[(1R)-1-[3-amino-5-(trifluoromethyl)pheny 1]ethyl]-1-[2-fluoro-5-(hydroxymethyl)phenyl] -6-oxo-pyridazine-3-carboxamide], the half-inhibitory concentration (IC50) in assay [1] and in assay [2] was less than 1 µM each time.

Turning to `C[C@@H](NC(=O)c1ccc(=O)n(-c2cccc3[nH]ccc23)n1)c1cc(N)cc(C(F)(F)F)c1` [Example 160, N-[(1R)-1-[3-amino-5-(trifluoromethyl)phenyl]ethyl]-1-(1H-indol-4-yl)-6-oxo-pyridazine-3-carboxamide], the concentration for half-maximal inhibition (IC50) was 1 to 10 µM in assay [1] and less than 1 µM in assay [2].

Regarding `C[C@@H](NC(=O)c1ccc(=O)n(-c2cncc(-c3cnnn3C)c2)n1)c1cccc(C(F)F)c1F` [Example B02, N-[(1R)-1-[3-(difluoromethyl)-2-fluoro-phenyl]ethyl]-1-[5-(3-methyltriazol-4-yl)-3-pyridyl]-6-oxo-pyridazine-3-carboxamide], the IC50 in assay [1] and in assay [2] was less than 1 µM throughout.

In the case of `Cc1cc(C(=O)N[C@H](C)c2cc(N)cc(C(F)(F)F)c2F)nn(-c2cncc(-c3cnnn3C)c2)c1=O` [Example B03, N-[(1R)-1-[5-amino-2-fluoro-3-(trifluoromethyl)phenyl]ethyl]-5-methyl-1-[5-(3-methyltriazol-4-yl)-3-pyridyl]-6-oxo-pyridazine-3-carboxamide], the 50% inhibitory concentration (IC50) in assay [1] and in assay [2] was less than 1 µM throughout.

With `CCn1nncc1-c1cccc(-n2cc(C(=O)N[C@H](C)c3cccc(C(F)(F)F)c3F)ccc2=O)c1` [Example B04, N-[(R)-1-[2-fluoro-3-(trifluoromethyl)phenyl]ethyl]-1-[m-(1-ethyl-1H-1,2,3-triazol-5-yl)phenyl]-6-oxo-1,6-dihydronicotinamide], the half-inhibitory concentration (IC50) in assay [1] and in assay [2] was less than 1 µM each time.

`Cc1c([C@@H](C)NC(=O)c2ccc(=O)n(-c3cncc(-c4ccnn4C)c3)n2)cc(N)cc1C(F)(F)F` [Example B05, N-[(1R)-1-[5-amino-2-methyl-3-(trifluoromethyl)phenyl]ethyl]-1-[5-(2-methylpyrazol-3-yl)-3-pyridyl]-6-oxo-pyridazine-3-carboxamide]: the IC50 in assay [1] and in assay [2] was less than 1 µM in each case.

For the compound `C[C@@H](NC(=O)c1ccc(=O)n(-c2ccc(F)c(-c3cnnn3C)c2)n1)c1cccc(C(F)(F)F)c1F` [Example B06, N-[(R)-1-[2-fluoro-3-(trifluoromethyl)phenyl]ethyl]-1-[4-fluoro-3-(1-methyl-1H-1,2,3-triazol-5-yl)phenyl]-6-oxo-1,6-dihydro-3-pyridazinecarboxamide], the IC50 in assay [1] and in assay [2] was less than 1 µM in each case.

Take `Cc1cc(C(=O)N[C@H](C)c2cc(N)cc(C(F)F)c2)nn(-c2cncc(-c3cnnn3C)c2)c1=O` [Example B07, N-[(1R)-1-[3-amino-5-(difluoromethyl)phenyl]ethyl]-5-methyl-1-[5-(3-methyltriazol-4-yl)-3-pyridyl]-6-oxo-pyridizine-3-carboxamide]: the concentration for half-maximal inhibition (IC50) in assay [1] and in assay [2] was less than 1 µM each time.

Regarding `C[C@@H](NC(=O)c1ccc(=O)n(-c2cncc(-c3cnnn3C)c2)c1)c1cccc(C(F)(F)F)c1F` [Example B08, N-[(1R)-1-[2-fluoro-3-(trifluoromethyl)phenyl]ethyl]-1-[5-(3-methyltriazol-4-yl)-3-pyridyl]-6-oxo-pyridine-3-carboxamide], the IC50 in assay [1] and in assay [2] was less than 1 µM throughout.

`C[C@@H](NC(=O)c1ccc(=O)n(-c2cncc(-c3cnnn3C)c2)n1)c1cccc(C(F)(F)CF)c1F` [Example B09, (R)-N-(1-(2-fluoro-3-(1,1,2-trifluoroethyl)phenyl)ethyl)-1-(5-(1-methyl-1H-1,2,3-triazol-5-yl)pyridin-3-yl)-6-oxo-1,6-dihydropyridazine-3-carboxamide]: the IC50 in assay [1] and in assay [2] was less than 1 µM throughout.

On to `Cc1cc(C(=O)N[C@H](C)c2cccc(C(F)(F)F)c2F)cn(-c2cncc(-c3cnnn3C)c2)c1=O` [Example B10, (R)-N-(1-(2-fluoro-3-(trifluoromethyl)phenyl)ethyl)-3-methyl-5'-(1-methyl-1H-1,2,3-triazol-5-yl)-2-oxo-2H-[1,3'-bipyridine]-5-carboxamide], for which the IC50 in assay [1] and in assay [2] was less than 1 µM throughout.

With `[2H]C([2H])([2H])n1nncc1-c1cncc(-n2nc(C(=O)N[C@H](C)c3cccc(C(F)(F)F)c3F)ccc2=O)c1` [Example B11, N-[(1R)-1-[2-fluoro-3-(trifluoromethyl)phenyl]ethyl]-6-oxo-1-[5-[3-(trideuteriomethyl)triazol-4-yl]-3-pyridyl]pyridazine-3-carboxamide], the concentration for half-maximal inhibition (IC50) in assay [1] and in assay [2] was less than 1 µM throughout.

As for “N-[(1R)-1-[3-amino-5-(trifluoromethyl)phenyl]ethyl]-6-oxo-1-[4-(trifluoromethoxy)phenyl]pyridazine-3-carboxamide [Example 154]”, the IC50 was 1 to 10 µM in assay [1] and less than 1 µM in assay [2] (read-out: KRAS ^G12C::SOS1 PPI assay (IC50 range, Grade), maximum concentration 3 µM, 8 concentrations, three replicates).

In general, IC50 refers to the concentration at which inhibition is half-maximal.
